The text below walks through data of publication PMC2678990, “Stilbene glycosides are natural product inhibitors of FGF-2-induced angiogenesis” (BMC Cell Biology, 2009).

One data set relates to human umbilical vein ECs. The arrangement: method as in PMID 11092574. The note with it: cited from earlier work.
The test system of data set [1] is BAEC. The data set is described as follows: Toxicity: MTT and active caspase-3 assays. The class given is cell-based, bovine. The note with it: MTT 72 h and active caspase-3 24 h, staurosporine 1.0-1.4 μM positive control. On the procedure:
Figure 2 The effect of compounds 1 and 2 on BAEC viability. The cytotoxic effect was determined using (A) The MTT assay; cells (7.5 × 10^3) were incubated with the test compounds or with staurosporine (1.4 μM) an inducer of active caspase-3 and of apoptosis for 72 h and MTT added. The absorbance was read at 570 nm. (B) Active-caspase-3 apoptosis assay: cells (4.0 × 10^4/ml) were incubated with the test compounds or with staurosporine (1.0 μM, 24 h) and stained with anti-active caspase-3 as described below. Experiments were performed in triplicate. Representative immunofluorescence photomicrographs for BAEC were taken as described below. A group of apoptotic cells are highlighted in II.
Stilbene glycoside toxicity was determined using the MTT and active caspase-3 assays. BAECs or HDMECs (7.5 × 10^3) were seeded in a 96 well plate and incubated for 4 h to allow cell adhesion. The test compound or staurosporine (1 μM), an inducer of active caspase-3 and therefore of apoptosis was added to the wells. Control cells were treated with PBS and the plate was incubated at room temperature for 72 hours. MTT reagent (10 μl) was added followed by incubation at room temperature for 2–4 h. When a purple precipitate was visible, detergent reagent (100 μl) was added to the plates and incubated at room temperature for 2 h in the dark. Absorbance was measured at 570 nm using a microplate reader. […]

Data set [2] deals with HDMEC. The data set is described as follows: Toxicity: MTT and active caspase-3 assays. It is filed as cell-based, human. The note with it: HDMEC; MTT 72 h and active caspase-3 24 h; staurosporine positive control. As for the experimental part: Stilbene glycoside toxicity was determined using the MTT and active caspase-3 assays. BAECs or HDMECs (7.5 × 10^3) were seeded in a 96 well plate and incubated for 4 h to allow cell adhesion. The test compound or staurosporine (1 μM), an inducer of active caspase-3 and therefore of apoptosis was added to the wells. Control cells were treated with PBS and the plate was incubated at room temperature for 72 hours. MTT reagent (10 μl) was added followed by incubation at room temperature for 2–4 h. When a purple precipitate was visible, detergent reagent (100 μl) was added to the plates and incubated at room temperature for 2 h in the dark. Absorbance was measured at 570 nm using a microplate reader.
In the apoptosis assay, HDMECs or BAEC (4 × 10^4/ml) in complete medium were added to the chambers slide and allowed to adhere for 24 h. The test compound (X μM) or staurosporine (1 μM) were added to all wells except control (PBS) and incubated for 24 hours. Wells treated with staurosporine were immediately washed (PBS) and fixed (4% paraformaldehyde) when cell morphology became round (2–4 h). After washing and fixing, cells were permeablized (0.1% Triton X-100; 10 min), washed (× 5~5 min each), air dried and blocked with 1% BSA in 1:50 TBS-Tween for 1 h at room temperature. Cells were incubated with goat anti-active caspase-3 (R&D system, UK; 1% BSA in TBS-Tween) for 1 h. […]

For data set [3], the system named is HDMEC. Description: FGF-2 invasion in Matrigel. The class given is cell-based, human. The note with it: FGF-2 treated.
Data set [4] relates to BAEC. Description: FGF-2-induced tube formation in Matrigel. The note with it: FGF-2 25 ng/ml. The class given is cell-based, bovine. On the procedure: (§1) Cells (1.0 × 10^6/ml) were mixed with an equal volume of Matrigel (Becton -Dickinson, Oxford, UK; prepared according to the supplier's instructions) at 4°C. Aliquots (80 μl) were added to the wells of a 48-well plate and allowed to polymerise (1 h) then 500 μl of 15% FCS containing FGF-2 (25 ng/ml; or other growth factors), with or without test compounds was added. The cells were incubated for 24 h at 37°C then fixed in 4% paraformaldehyde (5 min), washed in cold ethanol and the plate air dried. Cells were stained with Geimsa (30 s), air dried and photographed. Ten random fields were selected and the number of closed tubes counted.

A further data set has as its system phospho-ERK1/2 in BAEC. The data set is described as follows: Western blot of ERK1/2 phosphorylation. The class given is cell-based, bovine. The note with it: FGF-2 addition. As for the experimental part: Figure 9 (A) Western blots of p-ERK-1 and -2 were performed on BAEC treated with compound 1 as described below. (B) The bar charts show relative protein expression compared to the control given an arbitrary value of 1.0. All experiments were performed at least twice and a representative example is shown. Lane 1 control, lane 2 FGF-2 (25 ng/ml), lane 3 compound 1 ([…]), lane 4 compound 1 (14.3 μM) + FGF-2, lane 5 compound 1 (28.6 μM), lane 6 compound 1 (28.6 μM) + FGF-2.
The method is described in detail elsewhere. In brief, cells were lysed in RIPA buffer, protein concentration determined using the Biorad assay, and approximately 20 μg aliquots separated by 12% SDS-PAGE, electroblotted onto nitrocellulose filters (Hoefer, San Francisco, Ca, USA), blocked overnight with 1% BSA in TBS-Tween and incubated for 4 h at RT with characterised antibodies to phosphor-ERK1/2 (AutogenBioclear, mouse monoclonal, 1:1000). α-Actin (Sigma, UK; 1:1000) was used as a loading control. Filters were washed in TBS-Tween and stained with antibodies to peroxidase-conjugated secondary antibody. Proteins were detected with the ECL system (Amersham, UK). Protein expression was estimated spectrophotometrically from band intensity. Results are semi-quantitative and given a numerical value compared to the weakest observed band assigned an arbitrary value of 1.0. […]

Data set [5] concerns chick chorioallantoic membrane. Description: Chick chorioallantoic membrane (CAM) assay. The note with it: FGF-2 (25 ng) alone. The class given is in vivo. As for the experimental part:
The angiogenic activity of test compounds was determined using the semi-quantitative chick chorioallantoic assay (CAM) as described previously. To expose the CAM a window was created in the shells of 4 day-old chicken eggs. […] […] This approach enabled calculation of an accumulated response in each group. To photograph the membrane, 2 cm^3 of a 50% emulsion of aqueous paraffin oil containing 2% Tween-80 was injected at the site of application and photographed using a Leitz dissecting microscope. Each experiment was performed five times and statistical significance was determined by the Mann-Whitney U test and the data is expressed as a median value (m).

Data set [6] deals with HDMEC. Description: FGF-2-induced tube formation in Matrigel. The note with it: FGF-2 25 ng/ml. It is filed as cell-based, human. As for the experimental part:
as §1

Data set [7] has as its system BAEC. The data set is described as follows: FGF-2 invasion in Matrigel. The class given is cell-based, bovine. The note with it: FGF-2 treated. As for the experimental part:
The effect of the test compounds on cell invasion was investigated using a Transwell Boyden chamber system coated with reconstituted growth factor-depleted Matrigel. […] Representative photomicrographs for the effect of compound 1 are shown (Figure 7B).
Figure 7 The effect of compounds 1 (AI) and 2 (AII) on BAEC invasion into a Matrigel layer was studied using the chemoinvasion assay described below. Cells (1.7 × 10^4) were added to the Matrigel coated upper Boyden chamber and the compounds with or without FGF-2 added to the lower chamber. Cell invasion was measured after 24 h and assessed as described below. […] Results are the mean of three experiments. (B) Representative photomicrographs are shown for the effect of compound 1 on BAEC (original magnification × 20).
The procedure described above was repeated and wells having a uniform network of tubes were used to assess invasion into a second layer of Matrigel. Matrigel (100 μl), with and without the test compounds was added to the cells and allowed to polymerise (1 h at 37°C). FCS (15%) was added and the cells incubated for 24–72 h when tube growth into the upper layer was measured as described above.

On to `Oc1ccc(/C=C/c2cc(O)cc(O)c2)cc1` [resveratrol], for which the “Concentrations inhibiting differentiation into capillary-like structures” value with human umbilical vein ECs is 0.1 to 1 mM.

As for `CN[C@@H]1C[C@H]2O[C@@](C)([C@@H]1OC)n1c3ccccc3c3c4c(c5c6ccccc6n2c5c31)C(=O)NC4` [staurosporine, reference compound], the Cytotoxic effect entry with BAEC [1] and in the data set on HDMEC [2] was “significant cytotoxicity” throughout.

Consider “FGF-2: fibroblast growth factor-2, pro-angiogenic growth factor used as stimulus”, for which the results for the “Increase in migration into a second layer of Matrigel” value in the data set with HDMEC [3] and in the data set with BAEC [7] were 3.0 fold and 3.2 fold, respectively. The “Increase in differentiation into capillary-like structures” value with BAEC [4] and with HDMEC [6] was “approximately 4.0 fold” in each case. In addition, the “Increase in ERK1/2 phosphorylation compared to the control” value in the data set on phospho-ERK1/2 in BAEC came out at 50%. Also, the “Degree of angiogenesis (m), median score” value in [5] was found to be 3.
